Measured values published in patent EP0467660A2, “Use of d-limonenes as testosterone-5-alpha-reductase inhibitor and as hair grower” (Miyauchi, Yutaka, priority 1990, dated 1992).

Test system: testosterone 5α-reductase
Assay: Testosterone 5α-reductase enzymatic activity inhibitory ratio (crude rat prostate enzyme, [4-14C]-testosterone to DHT conversion, TLC)
Type: biochemical, Wristar male rat
Details: 37°C, two hours; for inhibitory effect on the testosterone 5α-reductase activity: result in words, Figs. 3-5
Procedure: A Wristar male rat weighing 250-300 g was sacrificed by bleeding, and its prostata was excised. The prostata was cut into fragments under ice-cooling. A 0.1 M HEPES buffer solution (pH: 7.4) containing 0.25 M sucrose (the buffer solution is hereinafter referred to as buffer solution A) was added to the fragments in the amount three times the wet weight of the fragments. Using a Potter-type homogenizer made of Teflon, the mixture was homogenized. The homogenate was filtered using a stainless mesh of a 200 µ size, and then the filtrate was centrifuged at 3000 rpm (900 xg) for ten minutes. The precipitate was suspended in 2.5 parts of buffer solution A, followed by centrifuging at 3000 rpm for five minutes. The residue recovered was suspended in buffer solution A weighing 0.8 times the wet weight of the fragments to produce a crude enzyme solution. The crude enzyme solution was stored at -70°C.
The test sample (less than 10 µl) previously prepared was added to [4-¹⁴C]-testosterone (1.5 nmol, 2.85 kBq), NADPH (0.5 µmol), and the enzyme solution (30 µl) cited above. To this was added the buffer solution A to the extent that the total volume became 100 µl, to prepare a reaction liquid. An enzymatic reaction was performed using the reaction liquid at 37°C for two hours. The enzymatic reaction was initiated by removing the reaction liquid from an ice-water-cooled bath to a 37°C warm bath. The enzymatic reaction was terminated by cooling the reaction liquid in ice-water. […]
A radiation activity of the developed material on the TLC plate cited above was measured by means of an AMBIS image analyzer.
Two spots shown in a chromatogram were subjected to readings of the radiation activities identified by their positions corresponding to testosterone (T) and dihydrotestosterone (DHT) respectively. […] Defining the conversion rate in the presence of the negative control as 100, a percentage of the conversion rate in the presence of the sample was calculated to determine the degree of the enzymatic activity inhibitory ratio of the sample. […]

inhibitory effect on the testosterone 5α-reductase activity	IC50 (Fig. 1, 120 min, read-out: amount exhibiting a inhibitory ratio of 50%)	Compound
no inhibitory effect	–	C=C[C@H]1[C@H](O[C@@H]2O[C@H](CO)[C@@H](O)[C@H](O)[C@H]2O)OC=C2C(=O)OCC[C@]21O [swertiamarin]
considerable high inhibitory effect	–	C=C(C)[C@H]1CC=C(C)CC1 [d-limonene]
–	500 µM	CC1(C)[C@@H](O)CC[C@]2(C)[C@H]3C(=O)C=C4[C@@H]5C[C@@](C)(C(=O)O)CC[C@]5(C)CC[C@@]4(C)[C@]3(C)CC[C@@H]12 [sodium β-glycyrrhetinic acid]
